Experimental data from patent US9388126B2, “Sigma receptor ligands and methods of modulating cellular protein homeostasis using same” (Drexel University, priority 2012, dated 2016).
Read-outs that look alike come from different tables or passages of the source.

Experiments:
[1] = system: MDA-MB-468 and MDA-MB-231 breast adenocarcinoma cells; assay: Poly-ubiquitylated protein immunoblot, breast adenocarcinoma cells; type: cell-based, human; conditions: 10 μM, up to 24 hours, MDA-MB-468
Experimental: FIG. 34A is an image of an immunoblot of MDA-MB-468 breast adenocarcinoma cells treated with 10 μM Sigma1 antagonist (IPAG) for the indicated times, up to 24 hours. Total cell lysates were resolved by SDS-PAGE and immunoblotted with a poly-ubiquitin antibody P4D1. FIG. 34B is an image of an immunoblot of HepG2 hepatocellular carcinoma cells treated for 20 hours with 10 μM of indicated Sigma1 ligands.
FIG. 59, comprising FIGS. 59A-59B, illustrates the finding that the novel Sigma1 ligand JMS-51-58 modulated the ubiquitin proteasome system. FIG. 59A is an image of an immunoblot evaluating the levels of poly-ubiquitylated proteins of MDA-MB-468 breast adenocarcinoma treated for 16 hours with 10 μM of JMS-51-58. FIG. 59B is an image of an immunoblot evaluating the levels of poly-ubiquitylated proteins of MDA-MB-231 breast adenocarcinoma cells treated for 16 hours with 10 μM of JMS-51-58. The levels of poly-ubiquitylated proteins were evaluated by immunoblot.

Sigma1 in SKBR3 cells = target: T1, Sigma1 in SKBR3 cells (Homo sapiens, UniProt Q99720); assay: Sigma1 protein level and sub-cellular fractionation; type: cell-based; conditions: 12-16 hours
T1 construct: endogenous in cells; host or cells: SKBR3
Experimental: FIG. 66, comprising FIGS. 66A-66H, illustrates the non-limiting mechanism(s) of Sigma1 ligand actions, wherein Sigma ligand treatment induces differential localization of Sigma1. […] FIG. 66B is an immunoblot of the fractions collected from biochemical sub-cellular fractionation assay. […] FIG. 66C is a graph illustrating quantification of bands in FIG. 66B. FIG. 66D is a set of images of confocal immunofluorescence microscopy of Sigma1 in SKBR3 cells treated for 12-16 hours with IPAG. Green signal indicated Sigma1, blue signal (DAPI) indicated nucleus. FIG. 66E is a set of graphs illustrating quantification of fractions collected from biochemical sub-cellular fractionation assay performed using SKBR3 cells. […] Functional and physical association with LC3II and functional interaction with VCP are reported in the literature. FIG. 66H is a set of confocal microscopy images, with evidence of co-localization of poly-ubiquitylated proteins and p62SQSTM. […] The ubiquitin-p62SQSTM co-localization and distribution pattern changed subsequent to IPAG treatment. […] Sigma1 functional related and physical associated proteins were redistributed to the other parts of the cell, especially into autophagosome.

[2] = system: MDA-MB-468 (GFP-LC3) cells; assay: GFP-LC3 punctae (autophagosome formation) microscopy assay; type: cell-based, human; conditions: for punctae per cell / mean number of punctae per cell: 24 hours; for autophagosomes per cell / GFP-LC3 punctae per cell: 10 μM for 20 hours
Experimental: The human GFP-LC3 expression plasmid, pEGFP-LC3 (a gift from Drs. Grazia Ambrosini and Gary K. Schwartz, MSKCC), was stably transfected into MDA-MB-468 and selected with 0.5 mg/ml G418 sulfate. Stable populations were generated and compared to parental MDA-MB-468 for Sigma1 expression and autophagic and growth inhibitory response to Sigma ligands. GFP-LC3 translocation (punctae formation) was assessed by microscopy in MDA-MB-468 (GFP-LC3) stable cell populations. For microscopy-based experiments, cells were seeded onto Lab-Tek II glass chamber slides (Nalge Nunc International). […] Images of GFP-LC3 punctae were acquired with a Zeiss Axioplan 2 Imaging widefield microscope using Axiovision LE software. Punctae were counted using the spot quantitation program in the Fluoro-Chem software package (Alpha Innotech) and confirmed in parallel by manual counting. Autophagosome formation in MDAMB-468 (GFP-LC3) cells was quantitated as the mean number of GFP-LC3 punctae per GFP positive cell.
Initially, an established immunoblot-based assay to detect microtubule associated protein light chain 3 (LC3) lipidation was used to test for the activation of autophagy. […] Since transient transfections can produce spurious GFP-LC3 aggregates, stable GFP-LC3 transfected populations of MDA-MB-468 (GFP-LC3) were generated. […]

MDA-MB-468 cells = assay: ER stress / UPR marker immunoblots; type: cell-based, human; conditions: for EC50: mean of two determinations
Experimental: Cells were lysed and proteins extracted in a modified RIPA buffer (25 mM Tris-HCl pH 7.6, 150 mM NaCl, 1% NP-40, 1% sodium deoxycholate and 0.1% SDS) supplemented with 10% glycerol (volume/volume), complete protease inhibitor cocktail (Roche), and Halt phosphatase inhibitor cocktail (Pierce). Approximately 10-20 μg of detergent soluble protein were resolved on NOVEX 10-20% polyacrylamide Tris-glycine gels (InVitrogen). Immunoblots were performed in a 20 mM Tris-buffered 137 mM saline solution (pH 7.6) containing 0.1% Tween-20 (polyoxyethylene (20) sorbitan monolaurate) and 5% (weight/volume) blotting grade non-fat dry milk (BioRad). The Lumigen PS-3 enhanced chemiluminescence kit (GE Healthcare) was used to reveal immunoblotted proteins.
Whether Sigma antagonists immediately induce autophagy or whether it is activated downstream of other cellular events was next examined. As Sigma1 is highly enriched in the ER, next examined was whether antagonist treatment could induce ER stress mediated UPR. Components of the IRE1α-JNK1/2 and eIF2α-ATF4 branches of the UPR as well as the UPR-associated ER chaperone, GRP78/BiP, were assayed as indicators of activated UPR.
All of the above-mentioned markers of ER stress were evaluated following treatment with increasing doses of Sigma ligands in order to compare UPR with the dose-responsive activation of autophagy. Sigma1 antagonist, IPAG, activated the UPR in a dose-responsive manner (FIG. 6).

T1 sequence (Q99720 whole entry): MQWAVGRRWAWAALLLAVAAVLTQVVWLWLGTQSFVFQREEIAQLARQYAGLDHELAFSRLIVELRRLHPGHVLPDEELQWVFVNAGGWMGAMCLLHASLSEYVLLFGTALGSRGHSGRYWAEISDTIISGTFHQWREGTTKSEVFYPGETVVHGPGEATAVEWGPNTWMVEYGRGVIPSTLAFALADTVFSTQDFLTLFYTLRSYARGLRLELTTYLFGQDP

## N=C(Nc1ccc(I)cc1)NC1C2CC3CC(C2)CC1C3 (stereo not shown) [IPAG, 1-(4-iodophenyl)-3-(2-adamantyl)guanidine]
[1]
  levels of ubiquitylated proteins: increased level of ubiquitylated proteins
Sigma1 in SKBR3 cells
  Sigma1 steady-state protein levels: Sigma1 steady-state protein levels do not change
  Sigma1 sub-cellular distribution: Sigma1 distribution is altered
[2]; 10 μM IPAG alone, 3-MA experiment
  punctae per cell: 23±2 punctae per cell
[2]; 10 μM IPAG with addition of 3-MA (5 mM)
  punctae per cell: 12±1 punctae per cell
[2]; ATF4 knocked down
  autophagosomes per cell: 5±1 autophagosomes per cell
[2]; IRE1α knocked down
  autophagosomes per cell: 9±2 autophagosomes per cell
[2]; Sigma1-knockdown cells
  GFP-LC3 punctae per cell: 10±2 punctae per cell
[2]; control siRNA transfected cells
  GFP-LC3 punctae per cell: 28±4 punctae per cell
[2]; no UPR knockdown
  autophagosomes per cell: 24±2 autophagosomes per cell
[2]; 10 μM, knockdown of Beclin1
  mean number of punctae per cell: 6±1 punctae per cell
[2]; 10 μM, without Beclin1 knockdown
  mean number of punctae per cell: 28±3 punctae per cell
[2]; 10 μM, GFP-LC3 punctae and LC3II immunoblot
  time at which significant formation of autophagosomes was detected: 6 to 12 h
[2]; Homo sapiens, MDA-MB-468, 24 hours of treatment, read-out: potency (EC50±S.E.M.) of autophagosome formation (GFP-LC3 punctae)
  EC50: 9000 ± 3000 nM
[2]; IPAG alone, JNK inhibitor experiment
  autophagosome formation: 23±2
[2]; IPAG and JNK inhibitor SP600125
  autophagosome formation: 7±1
[2]; following 24 hours of treatment
  concentration at which precipitous cell death occurred: 40 µM
MDA-MB-468 cells; 1 μM, 24 hours
  activation of UPR markers at a dose that does not produce autophagosomes: salient activation of at least seven markers of UPR
MDA-MB-468 cells; 24 hours, read-out: EC50 for phosphorylation of JNK (Thr183/Tyr185)
  EC50: 1700 nM
MDA-MB-468 cells; Homo sapiens, MDA-MB-468, 24 h, read-out: EC50 for induction of ATF4
  EC50: 500 nM
MDA-MB-468 cells; Homo sapiens, MDA-MB-468, 24 h, read-out: EC50 for induction of IRE1α
  EC50: 900 nM
MDA-MB-468 cells; Homo sapiens, MDA-MB-468, 24 h, read-out: EC50 for phosphorylation of JNK (Thr183/Tyr185)
  EC50: 1600 nM
MDA-MB-468 cells; Homo sapiens, MDA-MB-468, 24 h, read-out: EC50 for phosphorylation of eIF2α (Ser51)
  EC50: 2300 nM
MDA-MB-468 cells; Homo sapiens, MDA-MB-468, 24 h, read-out: EC50 for phosphorylation of p38MAPK (Thr180/Tyr182)
  EC50: 500 nM
MDA-MB-468 cells; Homo sapiens, MDA-MB-468, 24 hours, read-out: EC50 for induction of GRP78/BiP
  EC50: 1400 nM
